Data as given in patent US20020133846A1, “Method for protecting plants” (priority 1996, published 2002).
Like-named read-outs stand apart in the source and are kept apart here.

Experiments:
[1] = test system: Peronospora parasitica NoCo2; assay: Action against Peronospora parasitica NoCo2 in Arabidopsis thaliana (Col-0), rRNA fungal probe; assay type: in vivo; conditions: Table 29, Col-0, BTH alone 0.01 mM
[2] = test system: Pyricularia oryzae; assay type: in vivo
[3] = test system: Mycosphaerella fijiensis; assay: Action against Mycosphaerella fijiensis in bananas; conditions: Table 23, comp. I alone 50 g a.i. per ha
Protocol: 40 banana plants in a 300 m^2 plot were sprayed at 17-19 day intervals with a spray mixture prepared with the wettable powder of the active ingredient; in total 6 times. Infection was naturally. For evaluation, the leaf infested with the fungus was measured.

[4] = test system: Pyricularia oryzae; assay type: in vivo; conditions: Table 13, comp. I alone 6 ppm
[5] = test system: Peronospora parasitica isolate Emwa; assay: Fungal resistance to Peronospora parasitica Emwa after BTH treatment, Ws and NIM1-overexpressing lines; assay type: in vivo; conditions: 10 μM BTH
[6] = test system: Erysiphe graminis; assay: Action against Erysiphe graminis on barley (residual-protective / systemic)
Protocol: Residual-protective action: Barley plants about 8 cm in height were sprayed to drip point with an aqueous spray mixture (max. 0.02 % active ingredient) and were dusted 3 to 4 days later with conidia of the fungus. The infected plants were stood in a greenhouse at 22°. Fungus infestation was generally evaluated 10 days after infection.
Systemic action: Barley plants about 8 cm in height were watered with an aqueous spray mixture (max. 0.002 % active ingredient, based on the volume of the soil). […] The plants were dusted with conidia of the fungus 3 to 4 days later. The infected plants were stood in a greenhouse at 22°. Fungus infestation was generally evaluated 10 days after infection.

[7] = test system: Phytophthora infestans; assay type: in vivo
[8] = test system: Peronospora parasitica Emwa; assay: Action against Peronospora parasitica Emwa in Arabidopsis thaliana (Ws), rRNA fungal probe; assay type: in vivo; conditions: Hyaloperonospora parasitica, in Arabidopsis thaliana; for inhibition at 10 µM: BTH alone 0.01 mM
[9] = test system: Peronospora parasitica NoCo2; assay: whole plant or invertebrate; assay type: in vivo; conditions: Hyaloperonospora parasitica, in Arabidopsis thaliana
[10] = test system: Peronospora tabacina; assay: Action against Peronospora tabacina on tobacco plants
Protocol: Tobacco plants (6 weeks old) were sprayed with a formulated solution of the test compound. Four days after treatment, the plants were inoculated with a sporangia suspension of the fungus, kept at high humidity for 4 to 5 days and then incubated further under a normal day/night sequence. Evaluation of the symptoms in the tests was based on the leaf surface infested with fungus. The infestation of the untreated plants corresponded to 0 % action.

[11] = test system: Erysiphe graminis; assay: Action against Erysiphe graminis in wheat, field trials
Protocol: In field trials (10 m^2), winter wheat in the growth phase was sprayed with a spray mixture prepared with a wettable powder of the active ingredient. Infection was naturally. 10 days post-infection, the fungus infestation was assessed.

[12] = test system: Colletotrichum sp.; assay: Action against Colletotrichum sp. (anthracnose) on chili, field; assay type: in vivo; conditions: Table 16, chili fruits after fifth spraying, comp. I alone 5 ppm
Text: Effects on crop yield: In a plot of land about 10 m^2 (test location: Cikampek, Java, Indonesia), chili plants were sprayed a total of 7 times at intervals of about 7 days with 500-700 liters of spray mixture per hectare. Three days after the first spraying, the plants were infected artificially with the fungus.

[13] = test system: PR-1 gene expression; assay: Northern analysis of PR-1 gene expression after BTH treatment, Ws and NIM1-overexpressing lines; assay type: in vivo, Arabidopsis thaliana; conditions: for PR-1 gene expression: 10 μM BTH
[14] = Action on crop yield of chili, field; assay type: in vivo; conditions: Table 18, harvest after sixth spraying, comp. I alone 5 ppm
[15] = test system: Puccinia recondita; assay: Action against Puccinia recondita in wheat; conditions: Table 19, comp. I alone 100 mg a.i. per liter
Protocol: 7-day-old wheat plants were sprayed to drip point with a spray mixture prepared from a formulated active ingredient, or combination of active ingredients. After 4 days, the treated plants were infected with a conidia suspension of the fungus, and the treated plants were subsequently incubated for 2 days at a relative atmospheric humidity of 90-100% and 20 C. 10 days post-infection, the fungus infestation was assessed.

[16] = test system: Cercospora nicotianae; assay: Action against Cercospora nicotianae on tobacco plants; assay type: in vivo
[17] = test system: Pyricularia oryzae; assay type: in vivo; remark: listed apart in the source
[18] = test system: Cercospora sp.; assay: Action against Cercospora sp. (leaf spot) on chili, field; assay type: in vivo; conditions: Table 17, leaves after sixth spraying, comp. I alone 5 ppm
[19] = test system: Colletotrichum lagenarium; assay: Action against Colletotrichum lagenarium on Cucumis sativus L., soil application; assay type: in vivo
[20] = test system: Alternaria solani; assay: Action against Alternaria solani in tomatoes in the open; conditions: Table 24, comp. I alone 2.5 g a.i. per ha
Protocol: Tomato plants on a 7 m^2 plot were sprayed at 7-day intervals with a spray mixture prepared wettable powder of the active ingredient; in total 9 times. Infection was naturally. For ion, the leaf infested with the fungus was measured.

[21] = test system: Peronospora parasitica (NoCo2); assay: Resistance to Peronospora parasitica (NoCo2) in Arabidopsis, Example 17; assay type: in vivo; conditions: wild type Col-0 plants treated with INA 0.25 mg/ml, seven days after inoculation
[22] = test system: Pseudomonas syringae DC3000; assay: Infection with Pseudomonas syringae DC3000 in Arabidopsis, Example 17; conditions: wild-type plants pretreated with INA (0.25 mg/ml)
Protocol: Six-week-old wild-type (±INA treatment), and cim3 plants were inoculated with a suspension of P. syringae DC3000 and the progress of the disease was followed by monitoring the growth of the bacteria extracted from infected leaves over time. […] The plants were also visually inspected for disease symptoms.
For this example, cultures of Pseudomonas syringae pv. tomato strain DC3000 were grown on King's B media (agar plates or liquid) plus rifampicin (50 jig/ml) at 28° C. […] An overnight culture was diluted and resuspended in 10 mM MgCT2 to a density of 2-5×10^5 cells per ml and injected into Arabidopsis leaves. Injections were carried out by creating a small hole with a 28 gauge needle midway up the leaf and then injecting approximately 250 μl of the diluted bacterial solution with a 1 cc syringe. At various time points, 10 random samples consisting of 3 random leaf punches from a #1 cork borer were taken from 10 plants from each treatment. The 3 leaf punches were placed in an eppendorf tube with 300 μl of 10 MM MgCl2 and ground with a pestle. The resulting bacterial suspension was appropriately diluted and plated on King's B media plus rifampicin (50 μg/ml) and grown for 4 days at 28° C. Bacterial colonies were counted and the data were subjected to Student's t statistical analysis (Sokal and Rohlf (1981), Biometry, 2nd ed. New York: W.H. Freeman and Company). […]

With CSC(=O)c1cccc2nnsc12 [BTH] the inhibition at 10 µM ([1]; Hyaloperonospora parasitica, in Arabidopsis thaliana, read-out: Fungal Growth Inhibition % O (observed)) was 0%, the “Fungal Growth Inhibition % O (observed)” value [1] was “no fungal growth inhibition” and the “% action O (observed)” value ([2]; Table 14, comp. I alone 0.25 kg a.i. per ha) was 22%. For the same compound, the “% action O (observed)” value ([2]; Table 14, comp. I alone 0.5 kg a.i. per ha) was 50%, the “% action O (observed)” value [3] was 19% and the “% action O (observed)” value [4] was 15%. For the same compound, the “resistance to P. parasitica” value ([5]; NIM1-overexpressing lines) was “complete or almost complete resistance”, the “susceptibility to P. parasitica (Emwa)” value ([5]; wild-type Ws plants) was “still susceptible” and the “% action O (observed)” value ([6]; Table 3, comp. I alone 0.6 ppm) was 14%. For the same compound, the “% action O (observed)” value ([6]; Table 3, comp. I alone 2 ppm) was 33%, the “% action O (observed)” value ([7]; Table 25, comp. I alone 5 mg a.i. per liter) was 14% and the “% action O (observed)” value ([7]; Table 25, comp. I alone 25 mg a.i. per liter) was 36%. For the same compound, the “% action O (observed)” value ([7]; Table 25, comp. I alone 100 mg a.i. per liter) was 61%, the “% action O (observed)” value ([7]; Table 25, comp. I alone 500 mg a.i. per liter) was 72% and the inhibition at 3 µM ([8]; Table 30, Ws, BTH alone 0.003 mM, read-out: Fungal Growth Inhibition % O (observed)) was 0%. It also gave an inhibition at 10 µM ([8]; Table 30, Ws, read-out: Fungal Growth Inhibition % O (observed)) of 20%, an inhibition at 10 µM ([8]; Table 31, Ws, read-out: Fungal Growth Inhibition % O (observed)) of 30% and an inhibition at 10 µM ([8]; Table 32, Ws, read-out: Fungal Growth Inhibition % O (observed)) of 30%. It also gave an inhibition at 10 µM ([8]; text summary of Tables 30-32, Ws plants, read-out: fungal growth inhibition) of 20 to 30%, an inhibition at 30 µM ([9]; read-out: Fungal Growth Inhibition % O (observed), Table 34, wt Col-0, BTH 0.03 mM) of 20.8% and an inhibition at 100 µM ([9]; read-out: Fungal Growth Inhibition % O (observed), Table 34, wt Col-0, BTH 0.1 mM) of 85.7%. For the same compound, the “% action O (observed)” value ([10]; Table 28, comp. I alone 0.03 ppm) was 14%, the “% action O (observed)” value ([10]; Table 28, comp. I alone 0.1 ppm) was 34% and the “% action O (observed)” value ([10]; Table 28, comp. I alone 0.3 ppm) was 88%. The “% action O (observed)” value ([11]; Table 21, comp. I alone 5 g a.i. per ha) was 29%, the “% action O (observed)” value ([11]; Table 22, comp. I alone 5 g a.i. per ha) was 29% and the “% action O (observed)” value [12] was 55%. The “PR-1 gene expression in leaf tissue” value ([13]; NIM1-overexpressing lines relative to wild-type, 100 μM BTH) was “much stronger and quicker”, the PR-1 gene expression ([13]; NIM1-overexpressing lines) was “much stronger response” and the PR-1 gene expression ([13]; wild-type Ws line) was “barely detectable”. For the same compound, the “Crop yield in kg per hectare O (observed)” value [14] was 459 kg per hectare, the “% action O (observed)” value [15] was 51% and the “% action O (observed)” value ([16]; Table 9, comp. I alone 0.2 ppm) was 0%. The “% action O (observed)” value ([16]; Table 9, comp. I alone 2 ppm) was 17%, the “% action O (observed)” value ([16]; Table 9, comp. I alone 6 ppm) was 55% and the “% action O (observed)” value ([16]; Table 9, comp. I alone 20 ppm) was 78%. The “% action O (observed)” value ([16]; Table 10, comp. I alone 0.2 ppm) was 0%, the “% action O (observed)” value ([16]; Table 10, comp. I alone 2 ppm) was 17% and the “% action O (observed)” value ([16]; Table 10, comp. I alone 6 ppm) was 55%. The “% action O (observed)” value ([16]; Table 10, comp. I alone 20 ppm) was 78%, the “% action O (observed)” value ([17]; Table 15, comp. I alone 0.05 ppm) was 5% and the “% action O (observed)” value ([17]; Table 15, comp. I alone 0.1 ppm) was 18%. For the same compound, the “% action O (observed)” value ([17]; Table 15, comp. I alone 0.25 ppm) was 39%, the “% action O (observed)” value ([17]; Table 15, comp. I alone 0.5 ppm) was 65% and the “% action O (observed)” value [18] was 76%. The “% action O (observed)” value ([19]; Table 8, comp. I alone 0.02 ppm) was 6%, the “% action O (observed)” value ([19]; Table 8, comp. I alone 0.2 ppm) was 36% and the “% action O (observed)” value ([19]; Table 8, test 1, comp. I alone 0.06 ppm) was 0%. For the same compound, the “% action O (observed)” value ([19]; Table 8, test 3, comp. I alone 0.06 ppm) was 23% and the “% action O (observed)” value [20] was 32%.

In the case of O=C(O)c1cc(Cl)nc(Cl)c1 [INA, 2,6-dichloroisonicotinic acid], the “fungal growth (trypan blue, sporulation)” value [21] is reported as “no fungal growth” and the “disease symptoms (visual inspection)” value [22] is reported as “nearly devoid of disease symptoms”.
